From PubChem BioAssay AID652146 (Broad Institute, 2013)

Target: Protein disulfide-isomerase (Homo sapiens) (UniProt P07237)
Assay: PDI inhibitors, insulin turbidity readout, confirmation, biochemical, dry powder samples, set 2 (AID 652146)
Conditions: PDI insulin reduction turbidity, plate reader

Protein disulfide-isomerase (Homo sapiens), sequence (P07237 whole entry, looked up): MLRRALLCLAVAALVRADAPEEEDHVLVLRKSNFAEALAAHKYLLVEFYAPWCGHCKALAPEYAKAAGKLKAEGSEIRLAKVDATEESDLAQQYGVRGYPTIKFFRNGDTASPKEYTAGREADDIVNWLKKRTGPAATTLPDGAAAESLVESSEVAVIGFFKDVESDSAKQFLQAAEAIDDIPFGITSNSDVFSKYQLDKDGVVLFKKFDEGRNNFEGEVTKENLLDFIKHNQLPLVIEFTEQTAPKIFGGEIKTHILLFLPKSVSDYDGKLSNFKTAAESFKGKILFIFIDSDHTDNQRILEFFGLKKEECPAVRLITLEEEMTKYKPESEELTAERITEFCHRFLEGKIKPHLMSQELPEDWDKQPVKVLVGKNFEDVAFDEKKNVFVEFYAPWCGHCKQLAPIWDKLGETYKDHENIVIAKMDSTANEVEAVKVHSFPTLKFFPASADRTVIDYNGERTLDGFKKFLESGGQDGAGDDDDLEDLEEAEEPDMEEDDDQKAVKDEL

## CCOC(=O)C1(CCOc2ccccc2)CCN(Cc2ccc(O)c(Cl)c2)CC1
  AC50: 100 nM
